From ChEMBL document CHEMBL3603745, “Synthesis of ciprofloxacin dimers for evaluation of bacterial permeability in atypical chemical space” (Bioorg Med Chem Lett, 2015)
≈ marks a conversion by molar mass, not a printed value.

Tests used:
Escherichia coli [1] = test: Antibacterial activity against wild type Escherichia coli MC4100 by broth microdilution method; type: functional
Escherichia coli [2] = test: Antibacterial activity against tolC-deficient Escherichia coli NB27005-CDY0039 expressing gyrA S83L […], parC S80I mutant by broth microdilution method; type: functional
[3] = Inhibition of Escherichia coli recombinant gyrase A2B2 assessed as reduction of pHOT-1 supercoiling after 90 mins
Staphylococcus aureus [4] = test: Antibacterial activity against wild type Staphylococcus aureus ATCC 29213 by broth microdilution method; type: functional
Pseudomonas aeruginosa [5] = test: Antibacterial activity against Pseudomonas aeruginosa K1542 deficient with mexX, mexB by broth microdilution method; type: functional
Staphylococcus aureus [6] = test: Antibacterial activity against fluoroquinolone-resistant Staphylococcus aureus NB01006-AVR005 harboring gyrA S84L, parC S80F, parE E471K by broth microdilution method; type: functional
Pseudomonas aeruginosa [7] = test: Antibacterial activity against mexX, mexB deficient Pseudomonas aeruginosa NB52023-CDK006 harboring gyrAT83I and parC S87L by broth microdilution method; type: functional
Escherichia coli [8] = test: Antibacterial activity against wild type Escherichia coli BW5328/pAH69 by broth microdilution method; type: functional
Pseudomonas aeruginosa [9] = test: Antibacterial activity against mexX, mexB deficient Pseudomonas aeruginosa NB52023-CDK005 harboring gyrAT83I by broth microdilution method; type: functional
Escherichia coli [10] = test: Antibacterial activity against Escherichia coli imp-4213 by broth microdilution method; type: functional
Pseudomonas aeruginosa [11] = test: Antibacterial activity against wild type Pseudomonas aeruginosa PAO1 by broth microdilution method; type: functional
Escherichia coli [12] = test: Antibacterial activity against wild type Escherichia coli ATCC 25922 by broth microdilution method; type: functional
Staphylococcus aureus [13] = test: Antibacterial activity against wild type methicillin-susceptible Staphylococcus aureus ATCC 49951 by broth microdilution method; type: functional
Escherichia coli [14] = test: Antibacterial activity against tolC-deficient Escherichia coli JW5503-1 by broth microdilution method; type: functional
Escherichia coli [15] = test: Antibacterial activity against fluoroquinolone-resistant Escherichia coli CH10 harboring gyrA S83L D87N, parC S80I E84G, AcrA+ by broth microdilution method; type: functional

Row | SMILES | MIC (Escherichia coli [1]) | MIC (Escherichia coli [2]) | IC50 [3] | MIC (Staphylococcus aureus [4]) | MIC (Pseudomonas aeruginosa [5]) | MIC (Staphylococcus aureus [6]) | MIC (Pseudomonas aeruginosa [7]) | MIC (Escherichia coli [8]) | MIC (Pseudomonas aeruginosa [9]) | MIC (Escherichia coli [10]) | MIC (Pseudomonas aeruginosa [11]) | MIC (Escherichia coli [12]) | MIC (Staphylococcus aureus [13]) | MIC (Escherichia coli [14]) | MIC (Escherichia coli [15])
1 | O=C(O)c1cn(C2CC2)c2cc(N3CCN(Cc4cccc(CN5CCN(c6cc7c(cc6F)c(=O)c(C(=O)O)cn7C6CC6)CC5)c4)CC3)c(F)cc2c1=O | 2 µg/mL (≈ 2.61 µM) | > 32 µg/mL | 1.18 µM | 0.5 µg/mL (≈ 0.654 µM) | 8 µg/mL (≈ 10.5 µM) | 32 µg/mL (≈ 41.8 µM) | > 32 µg/mL | 2 µg/mL (≈ 2.61 µM) | > 32 µg/mL | ≤ 0.03 µg/mL | 32 µg/mL (≈ 41.8 µM) | 1 µg/mL (≈ 1.31 µM) | 0.25 µg/mL (≈ 0.327 µM) | 0.06 µg/mL (≈ 0.0784 µM) | > 32 µg/mL
2 | CN(CC(=O)N1CCN(c2cc3c(cc2F)c(=O)c(C(=O)O)cn3C2CC2)CC1)CC(=O)N1CCN(c2cc3c(cc2F)c(=O)c(C(=O)O)cn3C2CC2)CC1 | 0.25 µg/mL (≈ 0.323 µM) | 32 µg/mL (≈ 41.4 µM) | 4.37 µM | 4 µg/mL (≈ 5.17 µM) | 0.5 µg/mL (≈ 0.646 µM) | > 32 µg/mL | 32 µg/mL (≈ 41.4 µM) | 0.25 µg/mL (≈ 0.323 µM) | 8 µg/mL (≈ 10.3 µM) | 0.06 µg/mL (≈ 0.0775 µM) | 2 µg/mL (≈ 2.58 µM) | 0.25 µg/mL (≈ 0.323 µM) | 2 µg/mL (≈ 2.58 µM) | 0.06 µg/mL (≈ 0.0775 µM) | > 32 µg/mL
3 | O=C(CN1CCN(c2cc3c(cc2F)c(=O)c(C(=O)O)cn3C2CC2)CC1)NCCCN1CCN(CCCNC(=O)CN2CCN(c3cc4c(cc3F)c(=O)c(C(=O)O)cn4C3CC3)CC2)CC1 | > 32 µg/mL | > 32 µg/mL | 1.59 µM | 32 µg/mL (≈ 33.9 µM) | > 32 µg/mL | > 32 µg/mL | > 32 µg/mL | > 32 µg/mL | > 32 µg/mL | 8 µg/mL (≈ 8.48 µM) | > 32 µg/mL | > 32 µg/mL | 8 µg/mL (≈ 8.48 µM) | 2 µg/mL (≈ 2.12 µM) | > 32 µg/mL
4 | O=C(CN1CCN(c2cc3c(cc2F)c(=O)c(C(=O)O)cn3C2CC2)CC1)NCCOCCOCCNC(=O)CN1CCN(c2cc3c(cc2F)c(=O)c(C(=O)O)cn3C2CC2)CC1 | 32 µg/mL (≈ 35.9 µM) | > 32 µg/mL | 1.04 µM | > 32 µg/mL | 32 µg/mL (≈ 35.9 µM) | > 32 µg/mL | > 32 µg/mL | 32 µg/mL (≈ 35.9 µM) | > 32 µg/mL | 8 µg/mL (≈ 8.98 µM) | > 32 µg/mL | 32 µg/mL (≈ 35.9 µM) | > 32 µg/mL | 4 µg/mL (≈ 4.49 µM) | > 32 µg/mL
5 | O=C(CCN1CCN(c2cc3c(cc2F)c(=O)c(C(=O)O)cn3C2CC2)CC1)NCCOCCNC(=O)CCN1CCN(c2cc3c(cc2F)c(=O)c(C(=O)O)cn3C2CC2)CC1 | 32 µg/mL (≈ 36.6 µM) | > 32 µg/mL | 9.09 µM | > 32 µg/mL | > 32 µg/mL | > 32 µg/mL | > 32 µg/mL | 32 µg/mL (≈ 36.6 µM) | > 32 µg/mL | 8 µg/mL (≈ 9.14 µM) | > 32 µg/mL | 32 µg/mL (≈ 36.6 µM) | > 32 µg/mL | 4 µg/mL (≈ 4.57 µM) | > 32 µg/mL
6 | O=C(CCN1CCN(c2cc3c(cc2F)c(=O)c(C(=O)O)cn3C2CC2)CC1)NCCOCCOCCNC(=O)CCN1CCN(c2cc3c(cc2F)c(=O)c(C(=O)O)cn3C2CC2)CC1 | 8 µg/mL (≈ 8.71 µM) | > 32 µg/mL | 2.14 µM | > 32 µg/mL | > 32 µg/mL | > 32 µg/mL | > 32 µg/mL | 8 µg/mL (≈ 8.71 µM) | > 32 µg/mL | 4 µg/mL (≈ 4.35 µM) | > 32 µg/mL | 8 µg/mL (≈ 8.71 µM) | > 32 µg/mL | 1 µg/mL (≈ 1.09 µM) | > 32 µg/mL
7 | O=C(O)c1cn(C2CC2)c2cc(N3CCN(CCOCCOCCN4CCN(c5cc6c(cc5F)c(=O)c(C(=O)O)cn6C5CC5)CC4)CC3)c(F)cc2c1=O | 2 µg/mL (≈ 2.57 µM) | > 32 µg/mL | 28.2 µM | 16 µg/mL (≈ 20.6 µM) | 8 µg/mL (≈ 10.3 µM) | > 32 µg/mL | > 32 µg/mL | 2 µg/mL (≈ 2.57 µM) | > 32 µg/mL | 0.5 µg/mL (≈ 0.644 µM) | 32 µg/mL (≈ 41.2 µM) | 2 µg/mL (≈ 2.57 µM) | 16 µg/mL (≈ 20.6 µM) | 0.25 µg/mL (≈ 0.322 µM) | > 32 µg/mL
8 | O=C(O)c1cn(C2CC2)c2cc(N3CCN(CCOCCOCCOCCN4CCN(c5cc6c(cc5F)c(=O)c(C(=O)O)cn6C5CC5)CC4)CC3)c(F)cc2c1=O | 1 µg/mL (≈ 1.22 µM) | > 32 µg/mL | 4.04 µM | 16 µg/mL (≈ 19.5 µM) | 32 µg/mL (≈ 39 µM) | > 32 µg/mL | > 32 µg/mL | 1 µg/mL (≈ 1.22 µM) | 32 µg/mL (≈ 39 µM) | 0.25 µg/mL (≈ 0.305 µM) | 16 µg/mL (≈ 19.5 µM) | 1 µg/mL (≈ 1.22 µM) | 8 µg/mL (≈ 9.75 µM) | 0.125 µg/mL (≈ 0.152 µM) | > 32 µg/mL
9 | O=C(O)c1cn(C2CC2)c2cc(N3CCN(C(=O)OCCOCCOCCOC(=O)N4CCN(c5cc6c(cc5F)c(=O)c(C(=O)O)cn6C5CC5)CC4)CC3)c(F)cc2c1=O | 16 µg/mL (≈ 18.5 µM) | 32 µg/mL (≈ 37 µM) | 7.25 µM | 4 µg/mL (≈ 4.63 µM) | 16 µg/mL (≈ 18.5 µM) | > 32 µg/mL | > 32 µg/mL | 16 µg/mL (≈ 18.5 µM) | > 32 µg/mL | 0.25 µg/mL (≈ 0.289 µM) | > 32 µg/mL | 16 µg/mL (≈ 18.5 µM) | 2 µg/mL (≈ 2.31 µM) | 0.125 µg/mL (≈ 0.145 µM) | > 32 µg/mL
10 | O=C(O)c1cn(C2CC2)c2cc(N3CCN(CCOCCOCCOCCOCCOCCN4CCN(c5cc6c(cc5F)c(=O)c(C(=O)O)cn6C5CC5)CC4)CC3)c(F)cc2c1=O | 4 µg/mL (≈ 4.4 µM) | > 32 µg/mL | 10 µM | 8 µg/mL (≈ 8.8 µM) | 8 µg/mL (≈ 8.8 µM) | > 32 µg/mL | > 32 µg/mL | 2 µg/mL (≈ 2.2 µM) | > 32 µg/mL | 0.125 µg/mL (≈ 0.138 µM) | 32 µg/mL (≈ 35.2 µM) | 2 µg/mL (≈ 2.2 µM) | 2 µg/mL (≈ 2.2 µM) | 0.125 µg/mL (≈ 0.138 µM) | > 32 µg/mL
11 | O=C(O)c1cn(C2CC2)c2cc(N3CCN(CCOCCOCCOCCOCCOCCOCCOCCN4CCN(c5cc6c(cc5F)c(=O)c(C(=O)O)cn6C5CC5)CC4)CC3)c(F)cc2c1=O | 4 µg/mL (≈ 4.01 µM) | 8 µg/mL (≈ 8.02 µM) | 1.38 µM | 4 µg/mL (≈ 4.01 µM) | 16 µg/mL (≈ 16 µM) | > 32 µg/mL | > 32 µg/mL | 4 µg/mL (≈ 4.01 µM) | > 32 µg/mL | 4 µg/mL (≈ 4.01 µM) | 16 µg/mL (≈ 16 µM) | 2 µg/mL (≈ 2.01 µM) | 1 µg/mL (≈ 1 µM) | 0.125 µg/mL (≈ 0.125 µM) | > 32 µg/mL
12 | Cc1cc(C(=O)N2CCN(c3cc4c(cc3F)c(=O)c(C(=O)O)cn4C3CC3)CC2)cc(C(=O)N2CCN(c3cc4c(cc3F)c(=O)c(C(=O)O)cn4C3CC3)CC2)c1 | 0.5 µg/mL (≈ 0.62 µM) | 16 µg/mL (≈ 19.8 µM) | 1.16 µM | 1 µg/mL (≈ 1.24 µM) | 0.5 µg/mL (≈ 0.62 µM) | > 32 µg/mL | > 32 µg/mL | 0.5 µg/mL (≈ 0.62 µM) | 8 µg/mL (≈ 9.92 µM) | ≤ 0.03 µg/mL | 4 µg/mL (≈ 4.96 µM) | 0.5 µg/mL (≈ 0.62 µM) | 0.5 µg/mL (≈ 0.62 µM) | ≤ 0.03 µg/mL | > 32 µg/mL
13 | O=C(O)c1cn(C2CC2)c2cc(N3CCN(C(=O)c4cccc(C(=O)N5CCN(c6cc7c(cc6F)c(=O)c(C(=O)O)cn7C6CC6)CC5)c4)CC3)c(F)cc2c1=O | > 32 µg/mL | > 32 µg/mL | 0.11 µM | 2 µg/mL (≈ 2.52 µM) | > 32 µg/mL | > 32 µg/mL | > 32 µg/mL | > 32 µg/mL | > 32 µg/mL | 0.06 µg/mL (≈ 0.0757 µM) | > 32 µg/mL | > 32 µg/mL | 0.25 µg/mL (≈ 0.315 µM) | 0.125 µg/mL (≈ 0.158 µM) | > 32 µg/mL
14 | O=C(NCC(=O)N1CCN(c2cc3c(cc2F)c(=O)c(C(=O)O)cn3C2CC2)CC1)c1cccc(C(=O)NCC(=O)N2CCN(c3cc4c(cc3F)c(=O)c(C(=O)O)cn4C3CC3)CC2)c1 | 2 µg/mL (≈ 2.21 µM) | > 32 µg/mL | 3.2 µM | > 32 µg/mL | 2 µg/mL (≈ 2.21 µM) | > 32 µg/mL | > 32 µg/mL | 2 µg/mL (≈ 2.21 µM) | 32 µg/mL (≈ 35.3 µM) | 0.25 µg/mL (≈ 0.276 µM) | 16 µg/mL (≈ 17.6 µM) | 1 µg/mL (≈ 1.1 µM) | 1 µg/mL (≈ 1.1 µM) | 0.25 µg/mL (≈ 0.276 µM) | > 32 µg/mL
